Where a name gives a salt, the structure may show the parent alone.
Experiments:
[1] = molecular target: recombinant, pre-activated GST-JNK3 (Homo sapiens, UniProt P53779); experiment: JNK3 enzyme assay (SPA, GST-c-Jun phosphorylation); format: biochemical; details: 2 μM ATP, 120 min at R.T
Protocol: (§1) JNK2 and 3 enzyme assay: […] The incubation is performed for 120 min. at R.T and stopped upon addition of 200 μl of a solution containing 250 μg of Streptavidine-coated SPA beads (Amersham, Inc.)*, 5 mM EDTA, 0.1% Triton X-100 and 50 μM ATP, in phosphate saline buffer. After incubation for 60 minutes at RT, beads are sedimented by centrifugation at 1500×g for 5 minutes, resuspended in 200 μl of PBS containing 5 mM EDTA, 0.1% Triton X-100 and 50 μM ATP and the radioactivity measured in a scintillation β counter, following sedimentation of the beads as described above. By substituting GST-c Jun for biotinylated GST-1ATF2 or myelin basic protein, this assay can be used to measure inhibition of preactivated p38 and ERK MAP Kinases, respectively.

[2] = molecular target: recombinant, pre-activated GST-JNK2 (Homo sapiens, UniProt P45984); experiment: JNK2 enzyme assay (SPA, GST-c-Jun phosphorylation); format: biochemical; details: 2 μM ATP, 120 min at R.T
Protocol: as §1

[3] = molecular target: ERK2 (Homo sapiens, UniProt P28482); experiment: ERK2 enzyme assay (SPA, myelin basic protein substrate); format: biochemical
Protocol: as §1

[4] = molecular target: preactivated p38 (Homo sapiens, UniProt Q16539); experiment: p38 enzyme assay (SPA, GST-ATF2 substrate); format: biochemical
Protocol: The incubation is performed for 120 min. at R.T and stopped upon addition of 200 μl of a solution containing 250 μg of Streptavidine-coated SPA beads (Amersham, Inc.)*, 5 mM EDTA, 0.1% Triton X-100 and 50 μM ATP, in phosphate saline buffer. After incubation for 60 minutes at RT, beads are sedimented by centrifugation at 1500×g for 5 minutes, resuspended in 200 μl of PBS containing 5 mM EDTA, 0.1% Triton X-100 and 50 μM ATP and the radioactivity measured in a scintillation β counter, following sedimentation of the beads as described above. By substituting GST-c Jun for biotinylated GST-1ATF2 or myelin basic protein, this assay can be used to measure inhibition of preactivated p38 and ERK MAP Kinases, respectively.

[5] = tested on: JNK (Hlr c-Jun HeLa cells); experiment: C-Jun reporter assay; format: cell-based; details: Homo sapiens, MEKK1-transfected Hlr c-Jun HeLa cells, luciferase reporter
Protocol: Hlr c-Jun HeLa cells are cultured in DMEM High Glc supplemented with 10% FCS (Sigma), 2 mM Glutamine (Gibco), P/S, Hygromycin b 100 µg/mL and G418 250 μg/mL
The cells from flasks of near-confluent cultures are detached and disaggregated by treatment with trypsin as described above. The cells are resuspended in culture medium and counted. The cell suspension are diluted with medium to give about 3.5×10^6 cells/mL and […] of cell suspension are put onto 2 10 cm culture dishes containing 9 mL of culture medium. The plates are incubated at 37° C. in a humidified atmosphere of 5% CO2 in air
• Control 0.2 μg pTK Renilla, 5.8 μg pBluescript KS, 500 μl OPTIMEM (GIBCO), 18 μl Fugene 6 • Induced 0.1 μg pMEKK1, 0.2 μg pTK Renilla, 5.7 μg pBluescript KS, 500 μl OPTIMEM (GIBCO), 18 μl Fugene 6 30′ RT
The transfection mixture is added to the plated cells. The plates are incubated over night at 37° C. in a humidified atmosphere of 5% CO2 in air
A 96 wells plate containing 100 μl of culture medium per well is prepared
Compound: 2 μl of Hit compound stock dilution are added to the 100 μl (in triplicate). The transfected cells are trypsinised and re-suspend in 12 mL of culture medium. 100 μl of the dilution are added to each of the 96 wells plate. The plate is incubated over night at 37° C. in a humidified atmosphere of 5% CO2 in air
The medium is removed from the plate and the cells washed two times with 100 μl PBS Completely remove the rinse solution before applying PLB reagent. Dispense into each culture well […] of 1×PLB. Place the culture plates on a rocking platform or orbital shaker with gentle rocking/shaking to ensure complete and even coverage of the cell monolayer with 1×PLB. Rock the culture plates at room temperature for 15 minutes. Transfer 20 μl of the lysate into a white opaque 96 wells plate. Read in a luminometer. • Inject 50 μl of Luciferase Assay Reagent II wait 5″, read 10″ • Inject 50 μl of Stop & Glo® Reagent wait 5″, read 10″ Check RLU Luciferase/RLU Renilla*1000

ERK2, sequence (P28482 whole entry, species assumed): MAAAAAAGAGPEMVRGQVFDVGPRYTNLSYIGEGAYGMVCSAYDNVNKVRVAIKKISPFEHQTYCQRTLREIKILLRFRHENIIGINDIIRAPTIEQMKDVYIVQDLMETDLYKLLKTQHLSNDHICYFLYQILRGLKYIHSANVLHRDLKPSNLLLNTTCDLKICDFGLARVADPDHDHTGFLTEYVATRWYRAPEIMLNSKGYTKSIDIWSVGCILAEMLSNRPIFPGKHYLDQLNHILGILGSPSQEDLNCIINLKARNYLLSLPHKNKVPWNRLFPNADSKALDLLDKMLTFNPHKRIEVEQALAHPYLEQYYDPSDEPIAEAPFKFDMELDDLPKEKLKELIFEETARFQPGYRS
recombinant, pre-activated GST-JNK2, sequence (P45984 whole entry): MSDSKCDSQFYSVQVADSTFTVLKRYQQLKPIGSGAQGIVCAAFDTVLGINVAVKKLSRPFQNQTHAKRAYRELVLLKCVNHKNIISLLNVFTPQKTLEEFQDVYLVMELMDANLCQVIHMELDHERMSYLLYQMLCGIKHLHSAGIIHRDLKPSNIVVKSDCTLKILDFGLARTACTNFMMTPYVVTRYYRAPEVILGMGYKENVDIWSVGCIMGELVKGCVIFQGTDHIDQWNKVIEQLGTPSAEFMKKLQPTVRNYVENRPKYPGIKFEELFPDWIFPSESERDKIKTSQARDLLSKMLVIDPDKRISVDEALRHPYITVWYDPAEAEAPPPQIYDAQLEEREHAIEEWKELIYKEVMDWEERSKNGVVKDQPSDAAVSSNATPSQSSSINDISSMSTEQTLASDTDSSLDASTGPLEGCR
recombinant, pre-activated GST-JNK3, sequence (P53779 whole entry): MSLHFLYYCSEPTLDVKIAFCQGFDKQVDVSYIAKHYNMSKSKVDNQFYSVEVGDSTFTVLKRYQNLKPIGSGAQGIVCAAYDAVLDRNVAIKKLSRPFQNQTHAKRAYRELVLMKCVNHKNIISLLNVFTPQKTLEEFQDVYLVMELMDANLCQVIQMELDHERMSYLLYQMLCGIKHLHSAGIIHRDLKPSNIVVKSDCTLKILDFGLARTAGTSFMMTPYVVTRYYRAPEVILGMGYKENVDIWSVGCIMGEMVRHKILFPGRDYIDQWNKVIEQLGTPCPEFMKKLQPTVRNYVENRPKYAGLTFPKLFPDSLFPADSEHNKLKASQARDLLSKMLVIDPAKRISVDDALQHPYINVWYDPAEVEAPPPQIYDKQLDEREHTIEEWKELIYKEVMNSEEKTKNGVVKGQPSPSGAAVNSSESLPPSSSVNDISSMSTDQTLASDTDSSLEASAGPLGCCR
preactivated p38, sequence (Q16539 whole entry): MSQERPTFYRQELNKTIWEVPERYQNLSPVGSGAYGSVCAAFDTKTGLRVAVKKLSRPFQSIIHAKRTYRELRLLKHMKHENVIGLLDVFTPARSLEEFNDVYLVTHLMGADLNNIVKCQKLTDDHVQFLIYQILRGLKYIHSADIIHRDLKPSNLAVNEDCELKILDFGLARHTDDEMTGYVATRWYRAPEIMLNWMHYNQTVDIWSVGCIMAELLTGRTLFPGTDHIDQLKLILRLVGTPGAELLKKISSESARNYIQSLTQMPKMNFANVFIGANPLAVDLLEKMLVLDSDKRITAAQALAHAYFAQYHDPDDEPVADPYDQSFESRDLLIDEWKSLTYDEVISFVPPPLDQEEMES

Compound	melting point	IC50 [1]	IC50 [2]	IC50 [3]	other results
N#CC(c1ccnc(NCCc2ccc(O)cc2)n1)c1nc2ccccc2s1 (stereo not drawn) [Compound 43, 1,3-benzothiazol-2-yl(2-{[2-(4-hydroxyphenyl)ethyl]amino}pyrimidin-4-yl)acetonitrile]	258 to 261 °C	–	–	–	–
CNc1nccc(C(C#N)c2nc3ccccc3s2)n1 (stereo not drawn) [Compound 15, 1,3-benzothiazol-2-yl[2-(methylamino)-4-pyrimidinyl]acetonitrile]	–	950 nM	2300 nM	> 30000 nM	–
N#CC(c1ccnc(NCCc2ccccn2)n1)c1nc2ccccc2s1 (stereo not drawn) (as salt: TFA) [Compound 28, 1,3-benzothiazol-2-yl(2-{[2-(2-pyridinyl)ethyl]amino}-4-pyrimidinyl)acetonitrile]	247 °C (dec.)	–	–	–	–
N#CC(c1ccnc(NCCc2c[nH]cn2)n1)c1nc2ccccc2s1 (stereo not drawn) [Compound 10, 1,3-benzothiazol-2-yl(2-{[2-(1H-imidazol-4-yl)ethyl]amino}-4-pyrimidinyl)acetonitrile]	–	70 nM	210 nM	> 30000 nM	IC50 [4]: > 30000 nM
CN(C)CCCNc1nccc(C(C#N)c2nc3ccccc3s2)n1 (stereo not drawn) (as salt: TFA) [Compound 47, 1,3-benzothiazol-2-yl(2-{[3-(dimethylamino)propyl]amino}pyrimidin-4-yl)acetonitrile]	204 to 205 °C	–	–	–	–
COc1ccc(Oc2nccc(C(C#N)c3nc4ccccc4s3)n2)cc1 (stereo not drawn) [Compound 96, 1,3-benzothiazol-2-yl[2-(4-methoxyphenoxy)pyrimidin-4-yl]acetonitrile]	–	30 nM	300 nM	> 30000 nM	IC50 [4]: > 30000 nM
CSc1nccc(C(C#N)c2nc3ccccc3s2)n1 (stereo not drawn) [Compound 4, 1,3-benzothiazol-2-yl[2-(methylsulfanyl)-4-pyrimidinyl]acetonitrile]	–	350 nM	970 nM	> 30000 nM	–
N#CC(c1ccnc(NCCc2cccnc2)n1)c1nc2ccccc2s1 (stereo not drawn) [Compound 33, 1,3-benzothiazol-2-yl(2-{[2-(3-pyridinyl)ethyl]amino}-4-pyrimidinyl)acetonitrile]	–	–	–	–	inhibition at 10 µM [5]: > 50%
N#CC(c1ccnc(Cl)n1)c1nc2ccccc2s1 (stereo not drawn) [Compound 1, 1,3-benzothiazol-2-yl(2-chloro-4-pyrimidinyl)-acetonitrile]	–	290 nM	500 nM	> 30000 nM	–
N#CC(c1ccnc(NCCc2ccccc2)n1)c1nc2ccccc2s1 (stereo not drawn) [Compound 27, 1,3-benzothiazol-2-yl {2-[(2-phenylethyl)amino]-4-pyrimidinyl}acetonitrile]	256 °C (dec.)	–	–	–	–
N#CC(c1ccnc(OCc2ccc(CN3CCOCC3)cc2)n1)c1nc2ccccc2s1 (stereo not drawn) [Compound 93, 1,3-benzothiazol-2-yl(2-{[4-(morpholin-4-ylmethyl)benzyl]oxy}pyrimidin-4-yl)acetonitrile]	–	–	–	–	inhibition at 10 µM [5]: > 50%
N#CC(c1ccnc(N2CCCC2)n1)c1nc2ccccc2s1 (stereo not drawn) [Compound 26, 1,3-benzothiazol-2-yl[2-(1-pyrrolidinyl)-4-pyrimidinyl]acetonitrile]	270 to 272 °C	–	–	–	–
N#CC(c1ccnc(NCCN2CCCCC2)n1)c1nc2ccccc2s1 (stereo not drawn) (as salt: TFA) [Compound 48, 1,3-benzothiazol-2-yl {2-[(2-piperidin-1-ylethyl)amino]pyrimidin-4-yl}acetonitrile]	228 to 230 °C	–	–	–	–
N#CC(c1ccnc(OCc2ccc(CN3CCCCC3)cc2)n1)c1nc2ccccc2s1 (stereo not drawn) [Compound 95, 1,3-benzothiazol-2-yl(2-{[4-(piperidin-1-ylmethyl)benzyl]oxy}pyrimidin-4-yl)acetonitrile]	–	–	–	–	inhibition at 10 µM [5]: > 50%
N#CC(c1ccnc(NCCO)n1)c1nc2ccccc2s1 (stereo not drawn) [Compound 23, 1,3-benzothiazol-2-yl {2-[(2-hydroxyethyl)amino]-4-pyrimidinyl}acetonitrile]	–	510 nM	1800 nM	> 30000 nM	IC50 [4]: > 30000 nM
COc1nccc(C(C#N)c2nc3ccccc3s2)n1 (stereo not drawn) [Compound 102, 1,3-benzothiazol-2-yl(2-methoxy-4-pyrimidinyl)-acetonitrile]	–	105 nM	450 nM	> 30000 nM	–
N#CC(c1ccnc(OCc2ccccc2)n1)c1nc2ccccc2s1 (stereo not drawn) [Compound 80, 1,3-benzothiazol-2-yl[2-(benzyloxy)pyrimidin-4-yl]acetonitrile]	–	60 nM	250 nM	> 30000 nM	IC50 [4]: > 30000 nM
N#CC(c1ccnc(NCc2ccccn2)n1)c1nc2ccccc2s1 (stereo not drawn) (as salt: TFA) [Compound 29, 1,3-benzothiazol-2-yl{2-[(2-pyridinylmethyl)amino]-4-pyrimidinyl}acetonitrile]	250 °C (dec.)	–	–	–	–
Cn1cncc1CCNc1nccc(C(C#N)c2nc3ccccc3s2)n1 (stereo not drawn) (as salt: TFA) [Compound 49, 1,3-benzothiazol-2-yl(2-{[2-(1-methyl-1H-imidazol-5-yl)ethyl]amino}pyrimidin-4-yl)acetonitrile]	219 to 220 °C	–	–	–	–

Source: patent US7470686B2, “Method of inhibiting the expression and/or the activity of JNK” (Laboratoires Serono SA, priority 1999, dated 2008)
